In PubChem BioAssay AID1259407 (Chemical Carcinogenesis Research Information System (CCRIS), 2018):
Activity calls are given as the source filed them. How the calls were made is not given here.

Test system: CCRIS mutagenicity, Ames/micronucleus/aberration tests
Test: CCRIS mutagenicity studies
[1] = Test System: AMES SALMONELLA TYPHIMURIUM, Strain/Indicator: TA98, Metabolic Activation: NONE, Method: PREINCUBATION
[2] = Test System: AMES SALMONELLA TYPHIMURIUM, Strain/Indicator: TA98, Metabolic Activation: RAT, LIVER, S-9, AROCLOR 1254, Method: PREINCUBATION
[3] = Test System: AMES SALMONELLA TYPHIMURIUM, Strain/Indicator: TA100, Metabolic Activation: NONE, Method: PREINCUBATION
[4] = Test System: AMES SALMONELLA TYPHIMURIUM, Strain/Indicator: TA100, Metabolic Activation: NONE, Method: STANDARD PLATE
[5] = Test System: AMES SALMONELLA TYPHIMURIUM, Strain/Indicator: TA100(NR), Metabolic Activation: NONE, Method: PREINCUBATION

CCc1ccccc1
mutagenic call (Test System: AMES SALMONELLA TYPHIMURIUM, Strain/Indicator: TA97, Metabolic Activation: HAMSTER, LIVER, S-9, AROCLOR 1254, Method: PREINCUBATION): inactive; negative | mutagenic call (Test System: AMES SALMONELLA TYPHIMURIUM, Strain/Indicator: TA97, Metabolic Activation: NONE, Method: PREINCUBATION): inactive; negative | mutagenic call (Test System: AMES SALMONELLA TYPHIMURIUM, Strain/Indicator: TA97, Metabolic Activation: RAT, LIVER, S-9, AROCLOR 1254, Method: PREINCUBATION): inactive; negative | mutagenic call (Test System: AMES SALMONELLA TYPHIMURIUM, Strain/Indicator: TA98, Metabolic Activation: HAMSTER LIVER S-9, AROCLOR 1254 (10 OR 30%), Method: PREINCUBATION): inactive; negative | mutagenic call (Test System: AMES SALMONELLA TYPHIMURIUM, Strain/Indicator: TA98, Metabolic Activation: HAMSTER, LIVER, S-9, AROCLOR 1254, Method: PREINCUBATION): inactive; negative | mutagenic call [1]: inactive; negative | mutagenic call (Test System: AMES SALMONELLA TYPHIMURIUM, Strain/Indicator: TA98, Metabolic Activation: RAT LIVER S-9, AROCLOR 1254 (10 OR 30%), Method: PREINCUBATION): inactive; negative | mutagenic call [2]: inactive; negative | mutagenic call (Test System: AMES SALMONELLA TYPHIMURIUM, Strain/Indicator: TA100, Metabolic Activation: HAMSTER LIVER S-9, AROCLOR 1254 (10 OR 30%), Method: PREINCUBATION): inactive; negative | mutagenic call (Test System: AMES SALMONELLA TYPHIMURIUM, Strain/Indicator: TA100, Metabolic Activation: HAMSTER, LIVER, S-9, AROCLOR 1254, Method: PREINCUBATION): inactive; negative | mutagenic call [3]: inactive; negative | mutagenic call (Test System: AMES SALMONELLA TYPHIMURIUM, Strain/Indicator: TA100, Metabolic Activation: RAT LIVER S-9, AROCLOR 1254 (10 OR 30%), Method: PREINCUBATION): inactive; negative | mutagenic call (Test System: AMES SALMONELLA TYPHIMURIUM, Strain/Indicator: TA100, Metabolic Activation: RAT, LIVER, S-9, AROCLOR 1254, Method: PREINCUBATION): inactive; negative | mutagenic call (Test System: AMES SALMONELLA TYPHIMURIUM, Strain/Indicator: TA1535, Metabolic Activation: HAMSTER LIVER S-9, AROCLOR 1254 (10 OR 30%), Method: PREINCUBATION): inactive; negative | mutagenic call (Test System: AMES SALMONELLA TYPHIMURIUM, Strain/Indicator: TA1535, Metabolic Activation: HAMSTER, LIVER, S-9, AROCLOR 1254, Method: PREINCUBATION): inactive; negative | mutagenic call (Test System: AMES SALMONELLA TYPHIMURIUM, Strain/Indicator: TA1535, Metabolic Activation: NONE, Method: PREINCUBATION): inactive; negative | mutagenic call (Test System: AMES SALMONELLA TYPHIMURIUM, Strain/Indicator: TA1535, Metabolic Activation: RAT LIVER S-9, AROCLOR 1254 (10 OR 30%), Method: PREINCUBATION): inactive; negative | mutagenic call (Test System: AMES SALMONELLA TYPHIMURIUM, Strain/Indicator: TA1535, Metabolic Activation: RAT, LIVER, S-9, AROCLOR 1254, Method: PREINCUBATION): inactive; negative | mutagenic call (Test System: AMES SALMONELLA TYPHIMURIUM, Strain/Indicator: TA1537, Metabolic Activation: HAMSTER LIVER S-9, AROCLOR 1254 (10 OR 30%), Method: PREINCUBATION): inactive; negative | mutagenic call (Test System: AMES SALMONELLA TYPHIMURIUM, Strain/Indicator: TA1537, Metabolic Activation: NONE, Method: PREINCUBATION): inactive; negative | mutagenic call (Test System: AMES SALMONELLA TYPHIMURIUM, Strain/Indicator: TA1537, Metabolic Activation: RAT LIVER S-9, AROCLOR 1254 (10 OR 30%), Method: PREINCUBATION): inactive; negative | mutagenic call (Test System: MOUSE LYMPHOMA, Strain/Indicator: L5178Y (TK+/TK-), Metabolic Activation: NONE, Method: SUSPENSION/PLATE): active; positive

O=[N+]([O-])c1c2c(c3ccc4cccc5ccc1c3c45)CCCC2O (centres undefined)
mutagenic call (Test System: AMES SALMONELLA TYPHIMURIUM, Strain/Indicator: TA98, Metabolic Activation: NONE, Method: STANDARD PLATE): inactive; negative | mutagenic call [4]: inactive; negative

CCOc1ccc(NO)cc1
mutagenic call [5]: inactive; negative | mutagenic call (Test System: AMES SALMONELLA TYPHIMURIUM, Strain/Indicator: TA100(NR), Metabolic Activation: NONE, Method: STANDARD PLATE): inactive; negative | mutagenic call (Test System: AMES SALMONELLA TYPHIMURIUM, Strain/Indicator: TA100, Metabolic Activation: HAMSTER, LIVER, S-9, KANECHLOR 400, Method: PREINCUBATION): active; positive | mutagenic call [4]: inactive; negative | mutagenic call (Test System: AMES SALMONELLA TYPHIMURIUM, Strain/Indicator: TA100TN5-1,8-DNP1011, Metabolic Activation: NONE, Method: PREINCUBATION): inactive; negative | mutagenic call (Test System: AMES SALMONELLA TYPHIMURIUM, Strain/Indicator: TA100TN5-1,8-DNP1011, Metabolic Activation: NONE, Method: STANDARD PLATE): inactive; negative | mutagenic call (Test System: AMES SALMONELLA TYPHIMURIUM, Strain/Indicator: TA100TN5-1,8-DNP1012, Metabolic Activation: NONE, Method: PREINCUBATION): inactive; negative | mutagenic call (Test System: AMES SALMONELLA TYPHIMURIUM, Strain/Indicator: TA100TN5-1,8-DNP1012, Metabolic Activation: NONE, Method: STANDARD PLATE): inactive; negative | mutagenic call (Test System: AMES SALMONELLA TYPHIMURIUM, Strain/Indicator: YG1026, Metabolic Activation: NONE, Method: PREINCUBATION): active; positive | mutagenic call (Test System: AMES SALMONELLA TYPHIMURIUM, Strain/Indicator: YG1029, Metabolic Activation: NONE, Method: PREINCUBATION): active; positive | mutagenic call (Test System: AMES SALMONELLA TYPHIMURIUM, Strain/Indicator: YG1042, Metabolic Activation: NONE, Method: PREINCUBATION): active; positive

CC(=O)Nc1ccc(N=Nc2ccc(N(C)C)cc2)cc1
mutagenic call (Test System: AMES SALMONELLA TYPHIMURIUM, Strain/Indicator: TA98, Metabolic Activation: RAT, LIVER, S-9, POLYCHLORINATED BIPHENYLS, Method: PREINCUBATION): active; positive | mutagenic call (Test System: AMES SALMONELLA TYPHIMURIUM, Strain/Indicator: TA100, Metabolic Activation: RAT, LIVER, S-9, POLYCHLORINATED BIPHENYLS, Method: PREINCUBATION): inactive; negative

O=[N+]([O-])c1cc2c(ccc3cc(N(CCCl)CCCl)ccc32)o1
mutagenic call (Test System: AMEA SALMONELLA TYPHIMURIUM, Strain/Indicator: TA100(NR), Metabolic Activation: NONE, Method: STANDARD PLATE): active; positive | mutagenic call (Test System: AMES SALMONELLA TYPHIMURIUM, Strain/Indicator: TA100(NR), Metabolic Activation: RAT, LIVER, S-9, AROCLOR 1254, Method: STANDARD PLATE): active; positive | mutagenic call [4]: active; positive | mutagenic call (Test System: AMES SALMONELLA TYPHIMURIUM, Strain/Indicator: TA100, Metabolic Activation: RAT, LIVER, S-9, AROCLOR 1254, Method: STANDARD PLATE): active; positive

CC(=O)Nc1ccc(Oc2ccc(NO)cc2)cc1
mutagenic call (Test System: AMES SALMONELLA TYPHIMURIUM, Strain/Indicator: TA98(1,8-DNP6), Metabolic Activation: NONE, Method: PREINCUBATION): active; positive | mutagenic call (Test System: AMES SALMONELLA TYPHIMURIUM, Strain/Indicator: TA98(1,8-DNP6), Metabolic Activation: RAT, LIVER, S-9, AROCLOR 1254, Method: PREINCUBATION): active; positive | mutagenic call (Test System: AMES SALMONELLA TYPHIMURIUM, Strain/Indicator: TA98(NR), Metabolic Activation: NONE, Method: PREINCUBATION): active; positive | mutagenic call (Test System: AMES SALMONELLA TYPHIMURIUM, Strain/Indicator: TA98(NR), Metabolic Activation: RAT, LIVER, S-9, AROCLOR 1254, Method: PREINCUBATION): active; positive | mutagenic call [1]: active; positive | mutagenic call [2]: active; positive | mutagenic call [5]: active; positive | mutagenic call [3]: active; positive
